Results published in US20220202703A1, “IN SITU GEL-FORMING DELIVERY SYSTEMS, METHODS AND COMPOSITIONS” (Poly-Med, Inc., priority 2019, published 2022).

Experiment: Erdafitinib batch release study in artificial urine at 37° C., HPLC
Assay type: physicochemical
Settings: in solution / through in vitro study, HPLC PDA detection
Source text: Scope: Load Erdafitinib into a limited number of proprietary delivery systems and perform a batch release study in artificial urine to determine release and stability of the active agent. Erdafitinib sourced from publicly available supplier having 99% purity. Obtained as fine yellow powder. Viscoprene® used as a hydrosetting gel carrier presenting as a high viscosity liquid. An encapsulant was used to provide a diffusion barrier around the Viscoprene/Erdafitinib matrix for some samples.
Formulation 1: Viscoprene and diluent release matrix. Formulation 2: Viscoprene release matrix. Formulation 3: Viscoprene in Encapsulant A. Formulation 4: Viscoprene in Encapsulant B. Step 1: Prepared release matrices (Erdafitinib in Viscoprene) with or without diluent (active matrix). Each study specimen included approximately 12 mg of drug. Step 2: Active matrix was encapsulated for Formulations 3 and 4. Step 3: Formulations were placed in artificial urine (USP method) at 37° C. Step 4: At time points, artificial urine was changed to fresh artificial urine. Step 5: Samples were analyzed for Erdafitinib content by HPLC.
An Isocratic HPLC method (non-stability indicating) able to identify Erdafitinib using a C18 column and water/acetonitrile mobile phase. Calibration curve generated with a R2 value of 0.9999. […] Sample preparation: Erdafitinib mixed readily into Viscoprene matrices. […]

## COc1cc(OC)cc(N(CCNC(C)C)c2ccc3ncc(-c4cnn(C)c4)nc3c2)c1 [Erdafitinib, 1,2-Ethanediamine, N1-(3,5-dimethoxyphenyl)-N2-(1-methylethyl)-N1-(3-(1-methyl-1H-pyrazol-4-yl)-6-quinoxalinyl)-]
  Erdafitinib stability (in words): provisionally stable over a suitable timeframe
Listed as Erdatifinib
  Erdafitinib stability (in words): likely stable through in vitro study for extended duration
